Several values for one entry are separate records, joined by “and”; a condition that tells them apart may be missing. Identical values can stand only once. Entries after “also recorded” stand apart in the source; their conditions may differ. Like-named read-outs stand apart in the source and are kept apart here.
Assays:
[1] = Intracellular uptake in in vitro cellular model (unpublished data); assay type: in vitro ADME; conditions: depending on the cell line
[2] = target: T1, human erythrocyte acetylcholinesterase (AChE) (Homo sapiens, UniProt P22303); assay: biochemical
T1 construct: from tissue; host or cells: haemolysed erythrocytes of healthy human donors
T1 sequence (P22303 other isoform, or with tags, fused parts or gaps): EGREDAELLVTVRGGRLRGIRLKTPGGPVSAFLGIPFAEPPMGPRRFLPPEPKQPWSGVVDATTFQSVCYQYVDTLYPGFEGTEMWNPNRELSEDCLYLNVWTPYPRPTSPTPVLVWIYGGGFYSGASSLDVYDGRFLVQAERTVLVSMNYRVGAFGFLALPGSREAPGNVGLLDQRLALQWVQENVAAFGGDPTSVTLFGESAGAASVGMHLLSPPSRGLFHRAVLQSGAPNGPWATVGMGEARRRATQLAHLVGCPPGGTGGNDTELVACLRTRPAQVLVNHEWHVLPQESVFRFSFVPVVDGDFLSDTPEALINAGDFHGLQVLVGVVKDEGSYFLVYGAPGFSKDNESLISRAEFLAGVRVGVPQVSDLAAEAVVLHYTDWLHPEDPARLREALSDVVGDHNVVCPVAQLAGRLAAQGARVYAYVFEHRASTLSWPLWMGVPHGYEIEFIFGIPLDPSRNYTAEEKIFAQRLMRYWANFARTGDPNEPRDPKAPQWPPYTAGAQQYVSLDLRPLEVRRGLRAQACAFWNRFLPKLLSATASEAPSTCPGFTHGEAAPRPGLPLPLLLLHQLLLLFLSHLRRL
Protocol: (§1) Blood samples were obtained from healthy donors from the Voievodal Specialized Hospital in Łódź, Poland (Wojewódzki Specjalistyczny Szpital im. Dr W. Biegańskiego w Łodzi). The blood was collected into vacuum tubes containing sodium citrate. Erythrocytes were separated from plasma by centrifugation (3000 × g, 10 min, 20 °C) with a Micro 22 R centrifuge (Hettich ZENTRIFUGEN, Tuttlingen, Germany) and washed three times with 0.9% saline. Afterwards, red cells were haemolysed by freezing and stored at a temperature of –30 °C; before each experiment, they were restored at 37° C for 15 min and used to determine AChE activity. […] The studies on the biological material were approved by the Bioethics Committee of the Medical University of Lodz (RNN/27/18/KE).
(§2) The activity of both cholinesterases (AChE and BuChE) were conducted using a spectrophotometric method developed by Ellman with previously described modifications[25]^,[30]. […] 400-fold diluted solution of haemolysed erythrocytes or diluted plasma (200 times) was incubated for 15 min (37° C) with DTNB and tested compound at an appropriate concentration, and the reaction was started by addition of substrate (ATC or BTC). The final volume of a sample was 500 µL.
(§3) AChE Selectivity Index (SI) was calculated with the aid of the following formula: SI = IC50 of BChE/IC50 of AChE. In turn BuChE SI was defined as IC50 of AChE/IC50 of BChE. Linear regression (Hanes–Woolf plots) were used to estimate the maximal velocity (Vmax) and the Michaelis constant (Km).

[3] = target: T2, human plasma butyrylcholinesterase (BuChE) (Homo sapiens, UniProt P06276); assay: biochemical
T2 construct: Plasma for determination of BuChE activity was obtained by centrifuging the blood; from tissue; host or cells: plasma of healthy human donors
T2 sequence (P06276 29-602): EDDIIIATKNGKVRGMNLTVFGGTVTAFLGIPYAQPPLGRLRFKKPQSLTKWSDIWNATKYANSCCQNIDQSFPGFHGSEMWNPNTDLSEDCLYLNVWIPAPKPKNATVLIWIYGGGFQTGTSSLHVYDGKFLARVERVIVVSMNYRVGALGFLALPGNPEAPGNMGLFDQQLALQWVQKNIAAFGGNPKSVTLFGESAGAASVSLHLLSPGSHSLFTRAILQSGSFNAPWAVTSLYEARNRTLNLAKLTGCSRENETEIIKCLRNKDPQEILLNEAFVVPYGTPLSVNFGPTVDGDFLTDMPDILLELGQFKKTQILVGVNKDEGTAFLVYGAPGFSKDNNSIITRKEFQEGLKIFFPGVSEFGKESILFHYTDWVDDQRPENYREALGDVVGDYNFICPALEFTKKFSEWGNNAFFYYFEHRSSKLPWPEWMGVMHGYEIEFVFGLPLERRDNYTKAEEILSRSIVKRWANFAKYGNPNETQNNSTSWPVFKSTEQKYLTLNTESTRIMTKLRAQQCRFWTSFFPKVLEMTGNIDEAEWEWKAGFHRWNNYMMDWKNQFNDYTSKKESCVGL
Protocol: as §1, §2, §3

[4] = system: human umbilical vein endothelial cells (HUVECs); assay: HUVEC viability and integrity, real-time electrical impedance system (unpublished data); assay type: cell-based
Protocol: At lower concentrations of substrate, BuChE activity is related to Michaelis–Menten kinetics and its enzymatic activity is based on the formation of an enzyme–substrate complex [ES]. At higher substrate levels (> 1 mM) BuChE presents greater activity related to the formation of a substrate-activated complex [SES][33]. […] This fact is of vital importance when studying BuChE inhibitors as in vivo the concentration of ACh in the synaptic cleft is estimated to be about 5 mM^33, which imply that substrate activated form of BuChE is present in the synaptic cleft.

[5] = target: T3, AChE (Homo sapiens, UniProt P22303); assay type: biochemical
T3 construct: 400-fold diluted solution of haemolysed erythrocytes or diluted plasma (200 times) was incubated; from tissue; host or cells: haemolysed erythrocytes of healthy human donors
T3 sequence (P22303 other isoform, or with tags, fused parts or gaps): as the sequence (P22303 other isoform, or with tags, fused parts or gaps) above

[6] = target: T1, human erythrocyte acetylcholinesterase (AChE); assay: Kinetic parameters and type of AChE inhibition (Hanes–Woolf); assay type: biochemical; conditions: for Vmax(i) AChE: mean ± SD
Protocol: (§4) The absorbance was recorded at λ = 436 nm using a CECIL 2021 spectrophotometer (CECIL Instruments Limited, Cambridge, UK) with a thermostatic water flow (temperature 37° C).
as §3
(§5) To establish the type of inhibition, additional experiments were conducted with various concentrations of substrates (ATC, BTC), and the kinetic parameters of the enzymatic reactions were obtained using Hanes–Woolf equation, which is a graphical representation of enzyme kinetics in which the ratio of the initial substrate concentration [S] to the reaction velocity v is plotted against [S]. […]

[7] = target: T4, BuChE (Homo sapiens, UniProt P06276); assay: BuChE inhibition with excess of substrate (BTC); assay type: biochemical; conditions: for inhibition at 375 µM: compound at 375 µmol/L
T4 construct: Plasma for determination of BuChE activity was obtained by centrifuging the blood; from tissue; host or cells: plasma of healthy human donors
T4 sequence (P06276 29-602): as the sequence (P06276 29-602) above

[8] = target: T5, Aβ42 peptide (Homo sapiens, UniProt P05067); assay: Beta-amyloid (Aβ 1–42) aggregation, SensoLyte ThT kit; assay type: biochemical
T5 construct: Beta-amyloid (Aβ 1–42) aggregation studies were conducted using SensoLyte ThT Aβ42 Aggregation kit; purchased AnaSpec, Inc, Fremont, CA
T5 sequence (P05067 672-713): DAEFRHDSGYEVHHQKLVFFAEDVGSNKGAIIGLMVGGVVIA
Protocol: Beta-amyloid (Aβ 1–42) aggregation studies were conducted using SensoLyte ThT Aβ42 Aggregation kit (AnaSpec, Inc, Fremont, CA). Aβ42 peptide was dissolved in cold (4 °C) assay buffer and left to hydrate for a few minutes. The solution was spined at 10,000 rpm for 5 min at 4 °C to centrifuge out any precipitated material. […] The final volume of the test samples was 100 µL. Simultaneously, the positive control and negative control containing morin at the final concentration of 100 µmol/L were established. […] The measurements of fluorescence intensity expressed as relative fluorescence units (RFU) were taken for 90 min with 5 min intervals. The fluorescence intensity measured for positive control equals 100% of Aβ aggregation and was used for estimation of inhibition properties of tested biguanides.
Statistical analysis of data obtained in Aβ aggregation assay was conducted with a commercially available package (GraphPad Prism 5, La Jolla, CA). The results were expressed as the mean ± standard deviation (SD) of measurements conducted in triplicates or quadruplicates. One or two-way ANOVA and subsequent post hoc tests were used for intergroup comparisons. The results were considered significant at p values lower than 0.05.

[9] = target: T2, human plasma butyrylcholinesterase (BuChE); assay: Kinetic parameters and type of BuChE inhibition (Hanes–Woolf); assay type: biochemical; conditions: for Vmax(i) BuChE: mean ± SD
Protocol: as §4, §3, §5

[10] = system: erythrocytes; conditions: 6–1500 μmol/L; cited from earlier work
[11] = target: T2, human plasma butyrylcholinesterase (BuChE); conditions: published previously; cited from earlier work

## CN(C)C(=N)N=C(N)NS(=O)(=O)c1ccc(C(F)(F)F)cc1[N+](=O)[O-] [Compound 5]
[1]
  intracellular uptake relative to metformin: 70–80 fold
[2]; IC50 BChE/IC50 AChE
  SI AChE: 3.23
[2]; compound at 150.0 µmol/L
  inhibition at 150 µM: 35 ± 7.18%
[2]; human erythrocyte AChE, mean ± SD of three independent experiments
  IC50: 212 ± 48.3 µM
[3]; IC50(AChE)/IC50(BChE)
  SI BuChE: 0.31
[3]; human plasma BuChE, mean ± SD of three independent experiments
  IC50: 686 ± 86.4 µM
[4]; 300 μmol/L, 12–72 h of incubation
  decrease in HUVEC adhesion and viability: ~20%
[4]; 6–100 μmol/L
  effect on HUVEC viability: did not affect cell viability
[5]; at 1/2 IC50 for AChE
  type of AChE inhibition: mixed-type
[5]; each at 1/2 IC50 for AChE: metformin 1175, donepezil 0.0125, compound 5 106.0 µmol/L, alone or in mixture
  Vmax AChE: 0.206 ± 0.008 A/min
[6]
  I: type of inhibition, AChE: M (M: mixed type)
  type of AChE inhibition: mixed-type; also recorded: mixed inhibition; also recorded: mixed way
[6]; B: inhibitor at 1/3 of IC50
  vmax AChE, mean ± SD: 175.32 ± 33.25 mA/min
  Vmax(i) AChE: 0.175 ± 0.033 A/min
[6]; C: inhibitor at IC50
  vmax AChE, mean ± SD: 146.12 ± 40.50 mA/min
  Vmax(i) AChE: 0.146 ± 0.040 A/min
[6]; inhibitor at 1/3 of IC50
  vmax AChE, individual experiments B1–B3: 183.000 mA/min and 204.073 mA/min and 138.914 mA/min
[6]; inhibitor at IC50
  vmax AChE, individual experiments C1–C3: 173.750 mA/min and 165.000 mA/min and 99.631 mA/min
[7]; BTC 2.5 μmol/mL, various compound concentrations (Figure 8B)
  BuChE inhibition, maximal: up to 31.89 ± 6.22%
[7]; BTC 0.75 mmol/L
  inhibition at 375 µM: 27.5 ± 8.61%
[7]; BTC 2.5 mmol/L
  inhibition at 375 µM: ≤ 15.6%
[8]; 100 µmol/L, two-way ANOVA
  activity vs morin 100 µmol/L: significantly lower in comparison with morin
[8]; 200 µmol/L, two-way ANOVA, p > 0.05
  inhibitory property vs morin 100 µmol/L: comparable with those of morin
[8]; 200 µmol/L, vs control
  inhibition at 200 µM: ~20%
[8]; 100 and 200 µmol/L, after 60 min of reaction initiation
  Aβ aggregation decreased up to: ~80%
[9]
  I: type of inhibition, BuChE: M (M: mixed type)
  type of BuChE inhibition: mixed inhibition; also recorded: mixed manner; also recorded: Mixed type
[9]; B: inhibitor at 1/3 of IC50
  vmax BuChE, mean ± SD: 242.44 ± 12.47 mA/min
  Vmax(i) BuChE: 0.242 ± 0.012 A/min
[9]; C: inhibitor at IC50
  vmax BuChE, mean ± SD: 202.78 ± 2.42 mA/min
  Vmax(i) BuChE: 0.202 ± 0.002 A/min
[9]; inhibitor at 1/3 of IC50
  vmax BuChE, individual experiments B1–B3: 243.730 mA/min and 229.384 mA/min and 254.233 mA/min
[9]; inhibitor at IC50
  vmax BuChE, individual experiments C1–C3: 204.771 mA/min and 200.088 mA/min and 203.508 mA/min
[10]
  erythrocytes membrane disintegration: does not contribute to the erythrocytes membrane disintegration

## [H]/N=C(/N)N/C(=N/[H])NCCc1ccccc1 [Phenformin, phenformin, reference compound]
[3]; at 150 µmol/L
  inhibition at 150 µM: 44.7 ± 1.23%
[11]
  IC50: 259 ± 31 µM

— paper PMC6161601 (Journal of Enzyme Inhibition and Medicinal Chemistry, 2018)
